Converted amounts (≈) assume the structure as drawn.
Tests used:
Assay type in all cases: functional
Escherichia coli = test: Antibacterial activity against Escherichia coli ATCC 10536
Klebsiella pneumoniae = test: Antibacterial activity against Klebsiella pneumoniae ATCC 13883
Aspergillus niger = test: Antifungal activity against Aspergillus niger NRRL 530
Candida albicans = test: Antifungal activity against Candida albicans ATCC 10231
Staphylococcus aureus = test: Antibacterial activity against Staphylococcus aureus ATCC 6538
Bacillus subtilis = test: Antibacterial activity against Bacillus subtilis ATCC 6633

| SMILES | MIC (Escherichia coli) [µg/mL] | MIC (Klebsiella pneumoniae) [µg/mL] | MIC (Aspergillus niger) [µg/mL] | MIC (Candida albicans) [µg/mL] | MIC (Staphylococcus aureus) [µg/mL] | MIC (Bacillus subtilis) [µg/mL] |
| --- | --- | --- | --- | --- | --- | --- |
| COc1cc(C(C)C)c2cc(C)c(O)c3c2c1C(=O)O3 | > 1000 | > 1000 | 250 (≈ 918 µM) | 225 (≈ 826 µM) | 300 (≈ 1100 µM) | 350 (≈ 1290 µM) |
| COc1cc(C(C)C)c2cc(C)c(OC)c3c2c1C(=O)O3 | > 1000 | > 1000 | 200 (≈ 699 µM) | 175 (≈ 611 µM) | 275 (≈ 960 µM) | 250 (≈ 873 µM) |

— ChEMBL document CHEMBL1147399, “Two new sesquiterpene lactones from Ceiba pentandra” (1993)
